Molecular target: Glutamate NMDA receptor
Assay: Displacement of [3H]TCP from NMDA receptor of rat brain membranes
Type: cell membranes, Membrane

Row | Structure (SMILES) | Ki [nM]
1 | c1ccc2c(c1)C1C3CCCC3C2N2CCCCC12 (configuration not stated) | 15
2 | c1ccc2c(c1)CC1CCCCN1C2 (configuration not stated) | 10000
3 | Oc1ccc2c(c1)C1C3CCCC3C2C2CCCCN21 (configuration not stated) | 23
4 | c1ccc2c(c1)C1C3CCCCC3C2N2CCCCC12 (configuration not stated) | 134
5 | c1ccc2c(c1)C1C3OCCC3C2N2CCCCC12 (configuration not stated) | 600
6 | Brc1ccc2c(c1)C1C3CCCC3C2N2CCCCC12 (configuration not stated) | 41
7 | Oc1ccc2c(c1)C1C3CCCC3C2N2CCCCC12 (configuration not stated) | 2.3
8 | Fc1ccc2c(c1)C1C3CCCC3C2N2CCCCC12 (configuration not stated) | 20
9 | c1ccc2c(c1)C1CCC2N2CCCCC12 (configuration not stated) | 240
10 | CC12c3ccccc3C(C3CCCC31)N1CCCCC12 (configuration not stated) | 46
11 | Nc1ccc2c(c1)C1C3CCCC3C2N2CCCCC12 (configuration not stated) | 12
12 | Oc1cccc2c1C1C3CCCC3C2N2CCCCC12 (configuration not stated) | 2.3

From ChEMBL document CHEMBL1128423, “Synthesis and evaluation of 6,11-ethanohexahydrobenzo[b]quinolizidines: a new class of noncompetitive N-methyl-D-aspartate antagonists” (J Med Chem, 1995)
